Data as given in the NIST ThermoML archive (doi:10.1021/je060291c).
“And” between values parts separate entries of the source, which are not always exact repeats. Identical values can stand only once.

Assay: wn = mass fraction of the nth substance listed
Conditions: Liquid, Pulse-echo method, w2 = 0.49

CC(F)(F)F [1,1,1-trifluoroethane] + FC(F)C(F)(F)F
speed of sound
Conditions	253.22 K	258.15 K	265.62 K	273.14 K	280.7 K	288.18 K
940 kPa	–	–	–	500.1 m/s	–	–
1010 kPa	–	–	–	500.9 m/s	–	–
1130 kPa	–	–	–	502.3 m/s	–	427.1 m/s
1140 kPa	–	–	–	–	465.9 m/s	–
1150 kPa	–	574.9 m/s	–	–	–	–
1160 kPa	598.8 m/s	–	–	–	466.2 m/s	–
1170 kPa	–	575.3 m/s	539.5 m/s	–	–	–
1190 kPa	–	575.7 m/s	–	–	–	428.3 m/s
1210 kPa	–	–	540.1 m/s	–	466.5 m/s	–
1260 kPa	599.7 m/s	576.3 m/s	540.5 m/s	503.8 m/s	467.5 m/s	429.1 m/s
1380 kPa	600.9 m/s	577.6 m/s	541.7 m/s	505.3 m/s	469.1 m/s	–
1500 kPa	602 m/s	578.8 m/s	543 m/s	506.6 m/s	471 m/s	432.9 m/s
1630 kPa	603.1 m/s	580 m/s	544.3 m/s	508.1 m/s	472.4 m/s	434.9 m/s
1750 kPa	604.2 m/s	581.2 m/s	545.7 m/s	509.5 m/s	473.9 m/s	436.7 m/s and 436.6 m/s
2010 kPa	606.4 m/s	583.4 m/s	548.3 m/s	512.5 m/s	477.2 m/s	–
2250 kPa	608.7 m/s	585.8 m/s	550.8 m/s	515.3 m/s	480.2 m/s	–
2510 kPa	610.9 m/s	588.1 m/s	553.3 m/s	518.1 m/s	483.5 m/s	–
2750 kPa	613.1 m/s	590.3 m/s	555.9 m/s	520.9 m/s	486.6 m/s	–
3010 kPa	615.1 m/s	592.6 m/s	558.4 m/s	523.7 m/s	489.8 m/s	–
3500 kPa	619.3 m/s	597.1 m/s	563.3 m/s	529.2 m/s	495.6 m/s	–
4000 kPa	623.7 m/s	601.5 m/s	568.3 m/s	534.4 m/s	501.4 m/s	–
4500 kPa	627.9 m/s	606.1 m/s	572.9 m/s	539.5 m/s	507.2 m/s	–
5000 kPa	631.9 m/s	610.4 m/s	577.7 m/s	544.6 m/s	512.8 m/s	–
6010 kPa	639.9 m/s	618.6 m/s	586.7 m/s	554.2 m/s	523.3 m/s	–
7010 kPa	647.5 m/s	626.7 m/s	595.3 m/s	563.6 m/s	533.5 m/s	–
8000 kPa	655.1 m/s	634.7 m/s	603.7 m/s	572.9 m/s	543.1 m/s	–
9000 kPa	662.6 m/s	642.2 m/s	612.1 m/s	581.6 m/s	552.7 m/s	–
10000 kPa	669.8 m/s	649.7 m/s	620.3 m/s	590.2 m/s	561.9 m/s	–
12000 kPa	683.6 m/s	664 m/s	635.3 m/s	606.5 m/s	579.4 m/s	–
14000 kPa	697 m/s	677.9 m/s	649.8 m/s	622 m/s	595.5 m/s	–
16010 kPa	709.7 m/s	691.3 m/s	663.9 m/s	636.6 m/s	611 m/s	–
18000 kPa	722.2 m/s	704.1 m/s	677.1 m/s	650.5 m/s	625.4 m/s	–
20000 kPa	734.3 m/s	716.5 m/s	690.1 m/s	663.8 m/s	639.5 m/s	–
23000 kPa	751.6 m/s	734.2 m/s	708.2 m/s	683.2 m/s	659.6 m/s	–
26000 kPa	768.1 m/s	751.1 m/s	725.7 m/s	701.6 m/s	678.2 m/s	–
29010 kPa	783.7 m/s	767.3 m/s	742.6 m/s	718.9 m/s	696.3 m/s	–
32000 kPa	798.4 m/s	782.5 m/s	758.5 m/s	735.3 m/s	713.7 m/s	–
35000 kPa	812.8 m/s	797.1 m/s	773.9 m/s	751.1 m/s	729.9 m/s	–
40000 kPa	835.8 m/s	820.8 m/s	798.3 m/s	775.8 m/s	755.3 m/s	–
45000 kPa	857.8 m/s	843.3 m/s	821.3 m/s	799.7 m/s	779.7 m/s	–
50000 kPa	878.9 m/s	864.3 m/s	843.1 m/s	822 m/s	802.7 m/s	–
55000 kPa	899 m/s	884.5 m/s	863.8 m/s	843.4 m/s	824.2 m/s	–
60000 kPa	918.8 m/s	904.1 m/s	883.7 m/s	863.4 m/s	845.1 m/s	–
65000 kPa	937.2 m/s	923.1 m/s	902.8 m/s	882.8 m/s	864.9 m/s	–
